Structures are written as SMILES. Some results are limits rather than exact numbers.

Usually IC50 stands for the concentration that gives 50% inhibition. High values mean weaker potency in that assay, low ones greater potency in that assay.

For one assay, the system named is MOLP-8 cells. Briefly: Cell proliferation (alamarBlue), MOLP-8. Format: cell-based. Particulars: Homo sapiens, multiple myeloma cell line, 120 hours incubation. Here is the method: (§1) The ability of the compounds according to the invention to inhibit the proliferation of various cell lines was determined.
(§2) Cell viability was determined by means of the alamarBlue® reagent (Invitrogen). The cells were sown at different densities (MOLM-13, LAPC-4, MOLP-8 and MDA-MB-231: 4000 cells/well; B16F10: 400 cells/well) in 100 μl of growth medium on 96-well microtitre plates. After overnight incubation at 37° C., the fluorescence values (CI values) were determined. The plates were then treated with various substance dilutions and incubated at 37° C. for 96 hours (MOLM-13, MDA-MB-231 and B16F10 cells), 120 hours (MOLP-8 cells) or 168 hours (LAPC-4 cells). Subsequently, the fluorescence values were determined (CO values).
(§3) The compounds according to the invention were tested in the cell lines in Table 2, which represent the indications specified by way of example:
(§4) The indications corresponding to the different cell lines can be found in Table 2.
For orientation: The colour change of resazurin is a common sign of viable cells or microbes.

In assay [1] the target is BRD4(1) (amino acids 44-168) (Homo sapiens (Human), UniProt O60885). In words: BRD4 binding strength, TR-FRET (HTRF) assay of BRD4(1) / acetylated histone H4 peptide interaction. Particulars: inhibition of BRD4(1)/Ac-H4 peptide interaction. Background: TR-FRET usually uses a lanthanide donor and a delayed reading to cut background.
For another assay, the system named is MOLM-13 cells. In words: Cell proliferation (alamarBlue), MOLM-13. It is filed as cell-based. Particulars: Homo sapiens, acute myeloid leukaemia cell line, 96 hours incubation. Put shortly:
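Cells seeded at 4000/well, fluorescence read after overnight at 37° C, then compound-treated for 96 h (MOLM-13, MDA-MB-231), 120 h (MOLP-8) or 168 h (LAPC-4). AlamarBlue fluorescence at start subtracted from end value and compared with buffer-treated cells.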

The test system of another assay is MDA-MB-231 cells. Briefly: Cell proliferation (alamarBlue), MDA-MB-231. Format: cell-based. Particulars: Homo sapiens, mammary carcinoma cell line, 96 hours incubation. Here is the method: as §1
as §2, with “values). For the data analysis, the CI values were subtracted from the CO values and the results were compared between cells which had been treated with various dilutions of the substance or only with buffer solution.” for “values).”
as §3, §4

A further assay concerns B16F10 cells. Briefly: Cell proliferation (alamarBlue), B16F10. It is filed as cell-based. Particulars: Mus musculus, B16-F10; melanoma cell line, 96 hours incubation. Summed up:
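Mouse B16F10 cells were plated at 400 cells/well in 100 μl of growth medium in 96-well microtitre plates and incubated overnight at 37° C. Initial fluorescence (CI) was then read with alamarBlue® reagent. Cells were exposed to serial compound dilutions for 96 hours at 37° C before final fluorescence (CO) was read. CI was subtracted from CO and compared with buffer-treated controls.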

The test system of the next assay is LAPC-4 cells. In words: Cell proliferation (alamarBlue), LAPC-4. The note with it: Homo sapiens, LAPC4; prostate carcinoma (androgen receptor-positive) cell line, 168 hours incubation. Format: cell-based.

Turning to `Cc1nnc(CC2C=C(c3ccc(Cl)cc3)c3ccccc3-n3c(C)nnc32)o1` (stereo in doubt) [Example 38, (−)-(4R)-6-(4-chlorophenyl)-1-methyl-4-[(5-methyl-1,3,4-oxadiazol-2-yl)methyl]-4H-[1,2,4]triazolo[4,3-a][1]benzazepine], the IC50 was 45 nM in the assay on MOLP-8 cells; 20 nM in assay [1]; 120 nM in the assay on MOLM-13 cells; 110 nM with MDA-MB-231 cells; 60 nM with B16F10 cells; 40 nM with LAPC-4 cells.

Turning to `Cc1nnc2n1-c1ccccc1C(c1ccc(Cl)cc1)=C[C@H]2CC(=O)N1CCC2(CCCC2)CC1` [Example 29, (−)-1-(8-azaspiro[4.5]dec-8-yl)-2-[(4R)-6-(4-chlorophenyl)-1-methyl-4H-[1,2,4]triazolo[4,3-a][1]benzazepin-4-yl]ethanone], the half-inhibitory concentration (IC50) in the assay with MOLP-8 cells turned out to be 1670 nM; in assay [1] it was 1800 nM; in the assay with MOLM-13 cells it was 2960 nM; in the assay on MDA-MB-231 cells, 4730 nM; with B16F10 cells it was 2120 nM; in the assay with LAPC-4 cells it was 670 nM.

For `Cc1nnc2n1-c1ccccc1C(c1ccc(Cl)cc1)=C[C@H]2CC(=O)N1CC(Oc2ccccc2)C1` [Example 25, (−)-2-[(4R)-6-(4-chlorophenyl)-1-methyl-4H-[1,2,4]triazolo[4,3-a][1]benzazepin-4-yl]-1-(3-phenoxyazetidin-1-yl)ethanone], the IC50 in the assay with MOLP-8 cells came out at 590 nM; in assay [1] it was 1400 nM; in the assay with MOLM-13 cells it was 1130 nM; in the assay on MDA-MB-231 cells it was 1330 nM; in the assay with B16F10 cells, 490 nM; with LAPC-4 cells it was 170 nM.

Take `Cc1nnc2n1-c1ccccc1C(c1ccc(Cl)cc1)=C[C@H]2CC(=O)N1CC2(CCS2(=O)=O)C1` [Example 19, (−)-2-[(4R)-6-(4-chlorophenyl)-1-methyl-4H-[1,2,4]triazolo[4,3-a][1]benzazepin-4-yl]-1-(1,1-dioxido-1-thia-6-azaspiro[3.3]hept-6-yl)ethanone]: the IC50 with MOLP-8 cells stood at 190 nM; with MOLM-13 cells, 150 nM; in the assay with MDA-MB-231 cells, 380 nM; with B16F10 cells, 160 nM; in the assay with LAPC-4 cells, 170 nM.

Regarding `Cc1nnc2n1-c1ccccc1C(c1ccc(Cl)cc1)=CC2CC(=O)N1CCC(=O)C1` (stereo not drawn) [Example 26, 1-{[6-(4-chlorophenyl)-1-methyl-4H-[1,2,4]triazolo[4,3-a][1]benzazepin-4-yl]acetyl}pyrrolidin-3-one], the IC50 in the assay on MOLP-8 cells amounted to 380 nM; in assay [1] it was 40 nM; in the assay with MOLM-13 cells, 830 nM; in the assay with MDA-MB-231 cells, 1360 nM; with B16F10 cells, 610 nM; in the assay with LAPC-4 cells, 310 nM.

For `Cc1nnc2n1-c1ccccc1C(c1ccc(Cl)cc1)=CC2CC(=O)N1CCC2(CCCC2)CC1` (stereo not drawn) [Example 28, 1-(8-azaspiro[4.5]dec-8-yl)-2-[6-(4-chlorophenyl)-1-methyl-4H-[1,2,4]triazolo[4,3-a][1]benzazepin-4-yl]ethanone], the 50% inhibitory concentration (IC50) is 6300 nM with MOLP-8 cells; 1400 nM in assay [1]; above 10000 nM in the assay on MOLM-13 cells; above 10000 nM in the assay with MDA-MB-231 cells; 7050 nM with B16F10 cells; 1200 nM with LAPC-4 cells.

On to `Cc1nnc2n1-c1ccccc1C(c1ccc(Cl)cc1)=CC2CC(=O)N1CCS(=O)(=O)C1` (stereo not drawn) [Example 30, 2-[6-(4-chlorophenyl)-1-methyl-4H-[1,2,4]triazolo[4,3-a][1]benzazepin-4-yl]-1-(1,1-dioxido-1,3-thiazolidin-3-yl)ethanone], for which the IC50 in assay [1] was found to be 80 nM; in the assay with MOLM-13 cells, 850 nM; in the assay with MDA-MB-231 cells, 1130 nM; with B16F10 cells, 490 nM; with LAPC-4 cells, 190 nM.

As to `Cc1noc(C[C@H]2C=C(c3ccc(Cl)cc3)c3ccccc3-n3c(C)nnc32)n1` [Example 35, (−)-6-[(4R)-4-chlorophenyl]-1-methyl-4-[(3-methyl-1,2,4-oxadiazol-5-yl)methyl]-4H-[1,2,4]triazolo[4,3-a][1]benzazepine], the IC50 in the assay with MOLP-8 cells was 130 nM; in assay [1], 30 nM; with MOLM-13 cells it was 160 nM; with MDA-MB-231 cells, 210 nM; in the assay with B16F10 cells, 150 nM; with LAPC-4 cells, 80 nM.

`Cc1nnc2n1-c1ccccc1C(c1ccc(Cl)cc1)=C[C@H]2CC(=O)N1CCC(=O)C1` [Example 27, (−)-1-{[(4R)-6-(4-chlorophenyl)-1-methyl-4H-[1,2,4]triazolo[4,3-a][1]benzazepin-4-yl]acetyl}pyrrolidin-3-one]: the IC50 in assay [1] stood at 110 nM; with MOLM-13 cells, 250 nM; in the assay with MDA-MB-231 cells, 710 nM; in the assay on B16F10 cells, 340 nM; in the assay with LAPC-4 cells, 180 nM.

As to `Cc1nnc2n1-c1ccccc1C(c1ccc(Cl)cc1)=CC2CC(=O)N1CCOCC1` (stereo in doubt) [Example 15, (−)-2-[(4R)-6-(4-chlorophenyl)-1-methyl-4H-[1,2,4]triazolo[4,3-a][1]benzazepin-4-yl]-1-(morpholin-4-yl)ethanone], the IC50 in assay [1] worked out at 40 nM; in the assay on MOLM-13 cells it was 230 nM; with MDA-MB-231 cells it was 350 nM; with B16F10 cells it was 130 nM; with LAPC-4 cells, 60 nM.

As to `Cc1nnc2n1-c1ccccc1C(c1ccc(Cl)cc1)=CC2CC(=O)N1CC(Oc2ccccc2)C1` (stereo not drawn) [Example 24, 2-[6-(4-chlorophenyl)-1-methyl-4H-[1,2,4]triazolo[4,3-a][1]benzazepin-4-yl]-1-(3-phenoxyazetidin-1-yl)ethanone], the IC50 is 220 nM in assay [1]; 2940 nM in the assay on MOLM-13 cells; 2530 nM with MDA-MB-231 cells; 1050 nM with B16F10 cells; 550 nM in the assay on LAPC-4 cells.

Consider `Cc1nnc2n1-c1ccccc1C(c1ccc(Cl)cc1)=C[C@H]2CC(=O)N1CCS(=O)(=O)C1` [Example 31, (−)-2-[(4R)-6-(4-chlorophenyl)-1-methyl-4H-[1,2,4]triazolo[4,3-a][1]benzazepin-4-yl]-1-(1,1-dioxido-1,3-thiazolidin-3-yl)ethanone], for which the IC50 in assay [1] is 180 nM; in the assay on MOLM-13 cells, 190 nM; in the assay on MDA-MB-231 cells, 560 nM; with B16F10 cells, 220 nM; in the assay with LAPC-4 cells, 80 nM.

In the case of `Cc1nnc2n1-c1ccccc1C(c1ccc(Cl)cc1)=CC2CC(=O)N1CC2(COC2)C1` (stereo in doubt) [Example 4, (−)-2-[(4R)-6-(4-chlorophenyl)-1-methyl-4H-[1,2,4]triazolo[4,3-a][1]benzazepin-4-yl]-1-(2-oxa-6-azaspiro[3.3]hept-6-yl)ethanone], the IC50 with MOLP-8 cells is 740 nM; in assay [1], 130 nM; with MOLM-13 cells, 360 nM; in the assay with MDA-MB-231 cells, 2370 nM; with B16F10 cells, 550 nM; with LAPC-4 cells it was 660 nM.

For the origin of these results see patent US9663523B2, “BET protein-inhibiting 5-aryltriazoleazepines” (BAYER PHARMA AKTIENGESELLSCHAFT, priority 2012, dated 2017).
